Experimental data from PubChem BioAssay AID652005 (Sanford-Burnham Center for Chemical Genomics, 2013).
Activity calls are given as the source filed them. How the calls were made is not given here.

Target: Low molecular weight phosphotyrosine protein phosphatase (Homo sapiens) (UniProt P24666)
Assay: inhibition of human LMPTP enzyme activity – biochemical, absorbance, orthogonal assay, dose response (AID 652005)
Details: recombinant LMPTP, absorbance-based phosphatase activity

Chain of Low molecular weight phosphotyrosine protein phosphatase (Homo sapiens) (P24666 whole entry, looked up): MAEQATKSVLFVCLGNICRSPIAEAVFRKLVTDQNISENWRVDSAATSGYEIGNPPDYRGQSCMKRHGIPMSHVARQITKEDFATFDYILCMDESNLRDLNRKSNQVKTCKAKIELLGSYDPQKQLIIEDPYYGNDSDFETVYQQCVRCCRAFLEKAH

SMILES	IC50
CCc1ccc(C=C2SC(=S)N(CCCC(=O)Nc3ccc(C(=O)O)cc3)C2=O)cc1	> 80 µM (inactive)
O=C(NCc1ccc2c(c1)OCO2)c1c(O)nc2sccn2c1=O	> 80 µM (inactive)
CC(C1SC(=S)NC1=O)C1SC(=S)NC1=O (stereo not drawn)	> 80 µM (inactive)
CCN(c1ccccc1)S(=O)(=O)c1cc(C(=O)O)ccc1C	inactive
O=c1[nH]c2ccccc2n1C1CCN(Cc2ccc(-c3[nH]c4cc5ncnc5cc4nc3-c3ccccc3)cc2)CC1	> 80 µM (inactive)
O=C(N=Nc1c(O)[nH]c2ccc(F)cc12)c1ccc(NS(=O)(=O)c2cccs2)cc1	> 80 µM (inactive)
O=C(/C=C/c1ccc(Cl)cc1)NC(=S)Nc1ccc(C(=O)O)cc1	15 µM
Cc1csc2nc(O)c(C(=O)NCc3ccc4c(c3)OCO4)c(=O)n12	> 80 µM (inactive)
